Patent US20120040951A1, “HETEROARYL COMPOUNDS USEFUL AS RAF KINASE INHIBITORS” (priority 2008, published 2012)
pEC50, pIC50: −log10 of the molar value.

What was measured:
[1] = test system: phospho-ERK in melanoma derived WM-266-4 cells; assay: Mechanistic cellular assay for Raf kinase activity (phospho-ERK, Bio-Plex); format: cell-based; conditions: Homo sapiens, treated 1-2 hr at 37° C., serum free medium, read-out: pERK EC50
Method in brief: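 WM-266-4 melanoma cells (wild-type/V600D BRaf) grown overnight in 10% FBS RPMI, then treated 1–2 h at 37 °C in serum-free RPMI with eight 3-fold dilutions of compound (from 5 mM DMSO stock, 1000× dilution). Lysate phospho-ERK1,2 quantified by Bio-Plex bead immunoassay.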

V599E Raf = V599E Raf (Homo sapiens, UniProt P15056, V600E); assay: Biochemical FRET assay, mutant Raf (phosphorylation of MEK); conditions: 0.125 nM V599E Raf, 100 nM biotin-MEK, 25 μM ATP, read-out: Raf (mut) inhibition
Method in brief: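 V599E Raf (0.125 nM) preincubated 20 min with inhibitor and 100 nM biotin-MEK in HEPES pH 7.4 with Mg2+/Mn2+, then reacted with 25 μM ATP for 60 min at room temperature. EDTA-stopped; phospho-MEK1/2 (Ser217/221) detected by Eu/APC TR-FRET after 90 min.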

V599E Raf, sequence (P15056 whole entry V600E): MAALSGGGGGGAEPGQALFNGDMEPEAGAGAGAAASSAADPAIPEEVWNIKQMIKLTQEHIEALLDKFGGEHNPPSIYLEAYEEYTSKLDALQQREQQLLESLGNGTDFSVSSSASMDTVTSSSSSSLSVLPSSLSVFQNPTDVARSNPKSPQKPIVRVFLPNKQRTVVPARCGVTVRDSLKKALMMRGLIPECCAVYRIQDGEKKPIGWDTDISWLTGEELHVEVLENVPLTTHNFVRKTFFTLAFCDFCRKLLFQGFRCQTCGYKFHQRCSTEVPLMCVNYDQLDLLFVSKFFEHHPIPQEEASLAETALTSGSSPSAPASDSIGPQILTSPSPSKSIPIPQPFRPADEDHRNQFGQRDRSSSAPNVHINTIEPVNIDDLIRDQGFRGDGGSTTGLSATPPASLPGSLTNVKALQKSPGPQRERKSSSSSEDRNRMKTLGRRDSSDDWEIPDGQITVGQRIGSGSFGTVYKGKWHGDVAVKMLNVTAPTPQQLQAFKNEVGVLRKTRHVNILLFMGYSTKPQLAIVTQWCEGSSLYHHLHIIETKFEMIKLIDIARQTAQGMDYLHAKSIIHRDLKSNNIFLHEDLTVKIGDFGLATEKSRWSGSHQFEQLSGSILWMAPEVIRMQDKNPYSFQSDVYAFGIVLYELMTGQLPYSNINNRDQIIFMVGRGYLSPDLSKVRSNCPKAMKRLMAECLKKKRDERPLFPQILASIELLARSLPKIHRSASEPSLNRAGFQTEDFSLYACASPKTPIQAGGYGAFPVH

Row | Compound | pEC50 [1] | pIC50 (V599E Raf)
1 | COCCOc1cc(C(F)(F)F)ccc1Nc1ncc(C(C)NC(=O)c2cc3c(cn2)ncn3C)s1 (stereo not drawn) [Example 282] | 6.00 to 7.00 | ≥ 7.00
2 | CCOc1cc(C(F)(F)F)ccc1Nc1ncc(C(C)NC(=O)c2cc3c(cn2)ncn3C)s1 (stereo not drawn) [Example 283] | 6.00 to 7.00 | ≥ 7.00
3 | CCn1cnc2cnc(C(=O)NC(C)c3cnc(Nc4cnc(C(C)(C)C)nc4)s3)cc21 (stereo not drawn) [Example 285] | ≥ 7.00 | ≥ 7.00
4 | CC(NC(=O)c1cc2c(cn1)ncn2C1CCC1)c1cnc(Nc2cnc(C(C)(C)C)nc2)s1 (stereo not drawn) [Example 286] | ≥ 7.00 | ≥ 7.00
5 | CC(NC(=O)c1cc2c(cn1)nc(N)n2C)c1cnc(Nc2cnc(C(C)(C)C)nc2)s1 (stereo not drawn) [Example 287] | ≥ 7.00 | ≥ 7.00
6 | CC(C)Oc1cc(C(F)(F)F)ccc1Nc1ncc(C(C)NC(=O)c2cc3c(cn2)ncn3C)s1 (stereo not drawn) [Example 289] | 6.00 to 7.00 | ≥ 7.00
7 | CC(NC(=O)c1cc2c(cn1)ncn2C)c1cnc(Nc2ccc(F)c(C(C)(C)C(F)(F)F)c2)s1 (stereo not drawn) [Example 290] | ≥ 7.00 | ≥ 7.00
8 | CCn1cnc2cnc(C(=O)NC(C)c3cnc(Nc4ccc(C(F)(F)F)nc4)s3)cc21 (stereo not drawn) [Example 291] | 6.00 to 7.00 | ≥ 7.00
9 | CC(NC(=O)c1cc2c(cn1)ncn2C1CCC1)c1cnc(Nc2ccc(C(F)(F)F)nc2)s1 (stereo not drawn) [Example 292] | ≥ 7.00 | ≥ 7.00
10 | CCc1nc(C(C)(C)C)ncc1Nc1ncc(C(C)NC(=O)c2cc3c(cn2)ncn3C)s1 (stereo not drawn) [Example 295] | ≥ 7.00 | 6.00 to 7.00
11 | CC(NC(=O)c1cn2ccnc2cn1)c1cnc(Nc2ccc(C(F)(F)F)cc2)s1 (stereo not drawn) [Example 296] | 6.00 to 7.00 | ≥ 7.00
12 | C[C@@H](NC(=O)c1cn2c(Br)cnc2cn1)c1cnc(Nc2ccc(C(F)(F)F)cc2)s1 [Example 298] | ≥ 7.00 | ≥ 7.00
13 | CC(NC(=O)c1cn2c(Cl)cnc2cn1)c1cnc(Nc2ccc(C(F)(F)F)cc2)s1 (stereo not drawn) [Example 299] | 6.00 to 7.00 | ≥ 7.00
14 | CC(NC(=O)c1cn2c(C(F)(F)F)cnc2cn1)c1cnc(Nc2ccc(C(F)(F)F)cc2)s1 (stereo not drawn) [Example 300] | 5.00 to 6.00 | ≥ 7.00
15 | CC(NC(=O)c1cnc2nccn2c1)c1cnc(Nc2ccc(C(F)(F)F)cc2)s1 (stereo not drawn) [Example 309] | 5.00 to 6.00 | 6.00 to 7.00
16 | CC(NC(=O)c1cnc2ncccn12)c1cnc(Nc2ccc(C(F)(F)F)cc2)s1 (stereo not drawn) [Example 310] | 5.00 to 6.00 | ≥ 7.00
17 | CC(=O)N1CCn2c(C(=O)N[C@H](C)c3ncc(C(=O)Nc4cc(C(F)(F)F)c(Cl)cn4)s3)cnc2C1 [Example 316] | 5.00 to 6.00 | 6.00 to 7.00
18 | C[C@@H](NC(=O)c1cnc2n1CCN(C)C2)c1ncc(C(=O)Nc2cc(C(F)(F)F)c(Cl)cn2)s1 [Example 317] | 5.00 to 6.00 | 6.00 to 7.00
19 | CCN1CCn2c(C(=O)NC(C)c3cnc(Nc4ccc(C(F)(F)F)cc4)s3)cnc2C1 (stereo not drawn) [Example 318] | 5.00 to 6.00 | ≥ 7.00
20 | CC(NC(=O)c1cnn2cc(-c3cccnc3)ccc12)c1ncc(C(=O)Nc2cc(C(F)(F)F)c(Cl)cn2)s1 (stereo not drawn) [Example 320] | ≥ 7.00 | ≥ 7.00
21 | C[C@@H](NC(=O)c1cnn2cc(-c3cccnc3)ccc12)c1cc(C(=O)Nc2cccc(OC(F)(F)F)c2)on1 [Example 332] | ≥ 7.00 | 6.00 to 7.00
22 | Cc1ccc(NC(=O)c2cc([C@@H](C)NC(=O)c3cnn4cc(-c5ccncn5)cnc34)no2)cc1C(F)(F)F [Example 333] | 6.00 to 7.00 | 6.00 to 7.00
23 | Cc1cn(-c2cccc(C(=O)N[C@H](C)c3ncc(C(=O)Nc4cc(C(F)(F)F)c(Cl)cn4)s3)n2)cn1 [Example 334] | 5.00 to 6.00 | 6.00 to 7.00
24 | CC(NC(=O)c1cc2c(cn1)ncn2C)c1ccc(Nc2ccc(C(F)(F)F)cc2)nc1 (stereo not drawn) [Example 339] | 6.00 to 7.00 | ≥ 7.00
25 | Cc1nc(Nc2ccc(C(F)(F)F)cc2)sc1C(C)NC(=O)c1cc2c(cn1)ncn2C (stereo not drawn) [Example 340] | 5.00 to 6.00 | ≥ 7.00
26 | Cc1nc(C(C)NC(=O)c2cc3c(cn2)ncn3C)c(C)nc1Nc1ccc(C(F)(F)F)cc1 (stereo not drawn) [Example 341] | 5.00 to 6.00 | 6.00 to 7.00
27 | C[C@@H](NC(=O)c1cc2c(cn1)ncn2C1CN(S(C)(=O)=O)C1)c1cnc(Nc2ccc(C(F)(F)F)cc2)s1 [Example 346] | ≥ 7.00 | ≥ 7.00
28 | CC(=O)N1CC(n2cnc3cnc(C(=O)N[C@H](C)c4cnc(Nc5ccc(C(F)(F)F)cc5)s4)cc32)C1 [Example 347] | 6.00 to 7.00 | ≥ 7.00
29 | C[C@@H](NC(=O)c1cc2c(cn1)ncn2C1CN(CCO)C1)c1cnc(Nc2ccc(C(F)(F)F)cc2)s1 [Example 348] | ≥ 7.00 | ≥ 7.00
30 | CC(NC(=O)c1cc2c(cn1)ncn2C)c1cnc(Nc2cc(C#N)cc(C(C)(C)C)c2)s1 (stereo not drawn) [Example 350] | 5.00 to 6.00 | ≥ 7.00
